Laboratory results as given in BindingDB's records for doi:10.1021/acs.jmedchem.9b00781 (Seoul National University, 2019).

assay: Inhibition of RNA-dependent RNA polymerase in ZIKV SL0612 infected in African green monkey Vero cells assessed as reduction in virus-induced cytopathic effect measured after 96 hrs post-infection by MTS assay

Row | EC50 | Structure (SMILES)
1 | > 100 µM | O=c1ccn([C@H]2[C@H](O)[C@H](O)[C@@H](CO)[C@@H]2F)c(=O)[nH]1
2 | > 100 µM | O=c1ccn([C@H]2[C@H](O)[C@H](O)[C@@H](CO)[C@H]2F)c(=O)[nH]1
3 | > 100 µM | CNc1ncnc2c1ncn2[C@H]1[C@H](O)[C@H](O)[C@@H](CO)C1(F)F
4 | > 100 µM | O=c1ccn([C@H]2[C@H](O)[C@H](O)[C@@H](CO)C2(F)F)c(=O)[nH]1
5 | > 100 µM | CC(C)OC(=O)[C@H](C)N[P@](=O)(OC[C@@H]1[C@@H](O)[C@@H](O)[C@H](n2ccc(=O)[nH]c2=O)[C@@H]1F)Oc1ccccc1
6 | > 100 µM | Nc1ccn([C@H]2[C@H](O)[C@H](O)[C@@H](CO)C2(F)F)c(=O)n1
7 | > 100 µM | CC(C)OC(=O)[C@H](C)N[P@](=O)(OC[C@@H]1[C@@H](O)[C@@H](O)[C@H](n2ccc(=O)[nH]c2=O)C1(F)F)Oc1ccccc1
8 | > 100 µM | CNc1ncnc2c1ncn2[C@H]1[C@H](O)[C@H](O)[C@@H](CO)[C@H]1F
9 | > 100 µM | Nc1ccn([C@H]2[C@H](O)[C@H](O)[C@@H](CO)[C@H]2F)c(=O)n1

Row | Structure (SMILES) | EC50
10 | Nc1ncnc2c1ncn2[C@H]1[C@H](O)[C@H](O)[C@@H](CO)C1(F)F | 0.26 µM
11 | CC(C)OC(=O)[C@H](C)N[P@](=O)(OC[C@@H]1[C@@H](O)[C@@H](O)[C@H](n2cnc3c(N)ncnc32)C1(F)F)Oc1ccccc1 | 1.75 µM
12 | Nc1ncnc2c1ncn2[C@@H]1C[C@H](CO)[C@@H](O)[C@H]1O [3-(6-Amino-purin-9-yl)-5-hydroxymethyl-cyclopentane-1,2-diol] | 0.64 µM
